# Legend:
# [1] = target: T1, proteasome in MDA-MB-231 cells (Homo sapiens, UniProt P28074); assay: Proteasome activity in cell extracts of treated MDA-MB-231 cells (fluorogenic substrates); type: cell-based; conditions: MDA-MB-231 cells treated 10 h, cell extract, Suc-LLVY-AMC; read-out: IC50, chymotrypsin-like activity of proteasome
# T1 construct: endogenous in cells; host or cells: MDA-MB-231, MDA-MB-468 or T47D cells (treated 10 h, then lysed)
# T1 sequence (P28074 60-263): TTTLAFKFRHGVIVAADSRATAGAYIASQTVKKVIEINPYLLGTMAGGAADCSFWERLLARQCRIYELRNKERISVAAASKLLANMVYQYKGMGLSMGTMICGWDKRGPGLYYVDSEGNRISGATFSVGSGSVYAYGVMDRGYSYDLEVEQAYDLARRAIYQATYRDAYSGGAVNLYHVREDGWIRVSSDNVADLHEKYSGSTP
# T1 sequence (P28072 1-239 partner): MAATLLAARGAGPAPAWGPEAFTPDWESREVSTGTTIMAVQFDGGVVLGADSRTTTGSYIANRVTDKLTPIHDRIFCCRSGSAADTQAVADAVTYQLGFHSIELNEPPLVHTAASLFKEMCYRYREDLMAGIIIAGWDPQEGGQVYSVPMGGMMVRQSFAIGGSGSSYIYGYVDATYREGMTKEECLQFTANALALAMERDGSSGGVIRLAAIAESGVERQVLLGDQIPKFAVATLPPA
# T1 sequence (Q99436 44-277 partner): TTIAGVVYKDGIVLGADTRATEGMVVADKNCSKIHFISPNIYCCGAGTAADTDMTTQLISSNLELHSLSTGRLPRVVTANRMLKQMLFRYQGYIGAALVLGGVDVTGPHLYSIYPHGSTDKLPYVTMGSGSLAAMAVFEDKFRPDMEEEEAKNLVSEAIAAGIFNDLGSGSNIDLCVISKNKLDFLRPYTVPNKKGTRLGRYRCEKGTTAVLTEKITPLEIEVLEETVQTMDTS
# Description: (§1) Figure 1 Wedelolactone inhibits chymotrypsin-like, trypsin-like and caspase-like activities in breast cancer cells. MDA-MB-231 (A); MDA-MB-468 (B); and T47D (C) cells were treated with various concentrations of wedelolactone (w) for 10 h. Proteasome activities were evaluated in cell extracts using the activity-specific fluorogenic substrates (Suc-LLVY-AMC for testing chymotrypsin-like, Z-LLE-AMC for caspase-like, and Boc-LRR-AMC for trypsin-like activities). Treatment with MG132 served as a positive control. The data represent the mean values from three independent experiments. Error bars indicate the SD. * indicates a significant (p < 0.05) difference between wedelolactone-/MG132- and DMSO-treated cells.
# (§2) MDA-MB-231, MDA-MB-468 and T47D (6 × 10^5) cells were seeded in 5 mL of culture media, exposed to various concentrations of wedelolactone, DMSO or 10 μM MG132 for 10 h. Cells were harvested, resuspended in cell lysis buffer (40 mM Tris, pH 7.2, 50 mM NaCl, 2 mM β-mercaptoethanol, 2 mM ATP, 5 mM MgCl, 10% Glycerol) and briefly sonicated using an Ultrasonic Processor UP100H (Hielscher, Ringwood, NJ, USA). Cell lysates were cleared by centrifugation and protein concentration in supernatant was determined using DC protein assay (Biorad, Hercules, CA, USA). […] Fluorescence was measured by TECAN infinite 200 plate reader (TECAN) for 1 h at 37 °C.
# [2] = target: T2, proteasome in MDA-MB-468 cells (Homo sapiens, UniProt P28074); assay: Proteasome activity in cell extracts of treated MDA-MB-468 cells (fluorogenic substrates); type: cell-based; conditions: MDA-MB-468 cells treated 10 h, cell extract, Suc-LLVY-AMC; read-out: IC50, chymotrypsin-like activity of proteasome
# T2 construct: endogenous in cells; host or cells: MDA-MB-231, MDA-MB-468 or T47D cells (treated 10 h, then lysed)
# T2 sequence (P28074 60-263): T1 sequence (P28074 60-263)
# T2 sequence (P28072 1-239 partner): T1 sequence (P28072 1-239 partner)
# T2 sequence (Q99436 44-277 partner): T1 sequence (Q99436 44-277 partner)
# Description: as §1, §2
# [3] = target: T3, proteasome in T47D cells (Homo sapiens, UniProt P28074); assay: Proteasome activity in cell extracts of treated T47D cells (fluorogenic substrates); type: cell-based; conditions: T47D cells treated 10 h, cell extract, Suc-LLVY-AMC; read-out: IC50, chymotrypsin-like activity of proteasome
# T3 construct: endogenous in cells; host or cells: MDA-MB-231, MDA-MB-468 or T47D cells (treated 10 h, then lysed)
# T3 sequence (P28074 60-263): T1 sequence (P28074 60-263)
# T3 sequence (P28072 1-239 partner): T1 sequence (P28072 1-239 partner)
# T3 sequence (Q99436 44-277 partner): T1 sequence (Q99436 44-277 partner)
# Description: as §1, §2
# [4] = target: T4, 26S proteasome purified from MDA-MB-231 cells (Homo sapiens, UniProt P28074); assay: Proteasome activity in vitro, purified 26S proteasome; type: biochemical; conditions: Suc-LLVY-AMC, 1 h, read-out: IC50, chymotrypsin-like activity
# T4 construct: Human 26S proteasome was purified from 8 × 10^6 of MDA-MB-231 cells; endogenous in cells; host or cells: MDA-MB-231 cells; purified with The Rapid 26S Proteasome Purification Kit (J4310, UBPBio)
# Description: (§3) Figure 2 Wedelolactone inhibits chymotrypsin-like, trypsin-like, and caspase-like activities of purified 26S and 20S proteasome complexes in vitro. Wedelolactone (w) was added at various concentrations to reaction mixture containing either (A) 26S proteasome purified from MDA-MB-231 cells or (B) commercially available 20S proteasome, and fluorogenic substrate (Suc-LLVY-AMC for testing chymotrypsin-like, Z-LLE-AMC for caspase-like, and Boc-LRR-AMC for trypsin-like activities). Fluorescence was measured after 1 h incubation. MG132 was used as a positive control. The data represent the mean values from three independent experiments. Error bars indicate the SD. * indicates a significant (p < 0.05) difference in proteolytic activities between reaction mixtures containing wedelolactone/MG132 and DMSO.
# Human 26S proteasome was purified from 8 × 10^6 of MDA-MB-231 cells using The Rapid 26S Proteasome Purification Kit (J4310, UBPBio) according to manufacturer’s instructions.
# (§4) Chymotrypsin-like, trypsin-like and caspase-like proteasome activities were determined using Proteasome Activity Fluorometric Assay Kit II (J4120, UBPBio) according to manufacturer’s instructions. […] Fluorescence was measured by TECAN infinite 200 plate reader (TECAN, Mannedorf, Switzerland) for 1 h at 37 °C.
# [5] = target: T5, bovine 20S proteasome (Bos taurus, UniProt Q32KL2); assay: Proteasome activity in vitro, commercially available 20S proteasome; type: biochemical; conditions: Suc-LLVY-AMC, 1 h, read-out: IC50, chymotrypsin-like activity
# T5 construct: purchased UBPBio A1400
# Description: as §3, §4
# [6] = target: T6, proteasome in breast cancer cells (MDA-MB-231, MDA-MB-468, T47D) (Homo sapiens, UniProt P28072+P28074+Q99436); assay: Proteasome activity in breast cancer cell lines (statements on all three lines); type: cell-based; conditions: 10 h, cell extracts
# T6 construct: endogenous in cells; host or cells: MDA-MB-231, MDA-MB-468 and T47D cells; in A12 transiently transfected with hCTR1-N-Myc, with or without copper loading, while the proteasome itself stays endogenous
# T6 sequence (P28074 60-263): T1 sequence (P28074 60-263)
# T6 sequence (P28072 1-239): T1 sequence (P28072 1-239 partner)
# T6 sequence (Q99436 44-277): T1 sequence (Q99436 44-277 partner)
# Description: as §1, §2
# [7] = tested on: purified 26S and 20S proteasome complexes; assay: Proteasome activity in vitro (statements on purified 26S and 20S together); type: biochemical
# Description: as §3, §4
# [8] = tested on: p21, p27, p53, Bax and multiubiquitinated proteins in MDA-MB-231, MDA-MB-468 and T47D cells; assay: Immunoblotting of polyubiquitinated and short-lived proteins; type: cell-based, human; conditions: 10 h, all three cell lines
# Description: (§5) Figure 3 Multiubiquitinated and high turnover proteins accumulate in wedelolactone-treated breast cancer cells. MDA-MB-231, MDA-MB-468, and T47D cells were treated with various concentrations of wedelolactone or solvent for 10 h. (A) Protein extracts were subsequently analyzed by SDS-PAGE and immunoblotting using p21-, p27-, p53-, Bax-, and ubiquitin-specific antibodies. Treatment with MG132 served as a positive control; (B) Transcripts of CDKN1A, CDKN1B, TP53 and BAX genes were quantified using qPCR.
# 5 × 10^5 cells were seeded in 6-well plates. The next day, the cells were exposed to various concentrations of wedelolactone, DMSO, or 10 μM MG132 for 10 h. Cells were harvested and lysed as described previously. Cell lysates were subjected to SDS–PAGE and immunoblotted. Sample loading was normalized according to protein concentration determined by DC protein assay (Biorad). Blots were probed with anti-ubiquitin (3933S; Cell Signaling Technology, Inc., Beverly, MA, USA), anti-p21, anti-p27 (sc-817 and sc-528; Santa Cruz Biotechnology Inc., Santa Cruz, CA, USA), anti-p53, anti-Bax or anti-Myc-Tag (9282, 5023 and 2276S; Cell Signaling Technology), anti-α-tubulin antibodies (T9026; Sigma-Aldrich), and secondary antibodies conjugated with peroxidase (Sigma-Aldrich). […]
# [9] = tested on: CDKN1A, CDKN1B, TP53 and BAX genes in MDA-MB-231, MDA-MB-468 and T47D cells; assay: qPCR of CDKN1A, CDKN1B, TP53 and BAX transcripts; type: cell-based, human; conditions: 10 h, all three cell lines
# Description: as §5
# 1 × 10^6 cells were seeded in 5 mL dishes. Next day, the cells were exposed to various concentrations of wedelolactone or DMSO for 10 h. Cells were harvested and total RNA was isolated using GenElute Mammalian Total RNA Miniprep kit (Sigma-Aldrich). For cDNA synthesis, 1 μg of total RNA was reverse-transcribed using the QuantiTect Reverse Transcription kit (Qiagen, Hilden, Germany) according to the manufacturer’s instructions in a final reaction volume of 20 μL. Expression of CDKN1A, CDKN1B, TP53 and BAX genes was determined using the target-specific primers (Table S1) and KAPA SYBR FAST qPCR MASTER MIX (KK460, Kapa Biosystems, Cambridge, MA, USA) on LightCycler 480 II (Roche, Basel, Switzerland). Expression of the reference GAPDH gene (probe 4326317E, ThermoFisher Scientific, Waltham, MA, USA) was used for data normalization.
# [10] = tested on: MDA-MB-231, MDA-MB-468 and T47D cells over-expressing CTR1; assay: Cell mortality by PI exclusion assay (flow-cytometry) in copper-loaded vs control cells; type: cell-based, human; conditions: 48 h, CTR1 overexpression with/without 25 μM copper sulfate pretreatment 24 h
# Description: (§6) Figure 4 Copper loading enhances cytotoxicity and ROS production in wedelolactone-treated breast cancer cells. MDA-MB-231, MDA-MB-468, and T47D cells were transiently transfected with pCNDA3.1-hCTR1-N-Myc (CTR1) or control pCDNA3.1 plasmids (cmv), pretreated with copper sulfate (Cu) for 24 h and subsequently treated with wedelolactone (w) or solvent (DMSO) in fresh media. (A) Cells were harvested and expression of exogenous CTR1 protein was confirmed by SDS-PAGE followed by immunoblotting with the Myc-Tag antibody; (B) Relative copper concentration in cell lysates was analyzed by SALD ICP MS. Data for copper are presented as an integrated ^63Cu/^60Ni signal ratio. (C) Cell mortality and (D) ROS production were evaluated after PI/DHE staining using flow-cytometry. The data represent the mean values from three independent experiments. Error bars indicate the SD. * indicates a significant (p < 0.05) difference.
# 3 × 10^5 cells were seeded in 6-well plates. After 24 h, transient transfection was performed, using 3 μL of Lipofectamine LTX reagent (Invitrogen) with a mixture containing 1.5 μg of pCNDA3.1-hCTR1-N-Myc or control pCDNA3.1 plasmid and 1.5 μL of PLUS reagent (Invitrogen). […] Cytotoxicity of wedelolactone was analyzed 48 h later by PI staining (1 μg/mL) using flow-cytometry as described previously.
# [11] = tested on: MDA-MB-231, MDA-MB-468 and T47D cells over-expressing CTR1; assay: ROS production by DHE staining (flow-cytometry) in copper-loaded vs control cells; type: cell-based, human; conditions: 10 h, CTR1 overexpression with/without 25 μM copper sulfate pretreatment 24 h
# Description: as §6
# 3 × 10^5 cells were seeded in 6-well plates. After 24 h, transient transfection was performed as described in chapter 4.6. […] Reactive oxygen species (ROS) were measured using flow-cytometry (BD FACSVerse, BD Biosciences, Franklin Lakes, NJ, USA) at an excitation wavelength of 485 nm and an emission wavelength of 538 nm. Data were analyzed using BD FACSuite software (BD Biosciences).
# [12] = tested on: breast cancer cell lines; parameters: method as in PMID 21315506, PMID 22733624; conditions: all three breast cancer cell lines, at concentrations corresponding to the IC50 values; cited from earlier work
smiles,measurement,setting,value
COc1cc(O)c2c(c1)oc(=O)c1c3cc(O)c(O)cc3oc21 [Wedelolactone],IC50,[1],27.8 µM
same,IC50,[2],12.8 µM
same,IC50,[3],19.5 µM
same,IC50,[4],9.97 µM
same,IC50,[5],6.13 µM
same,"Inhibition of chymotrypsin-like, trypsin-like and caspase-like activities of proteasome in cells",[6],inhibited all three proteolytic activities of proteasome
same,"Inhibition of chymotrypsin-like, trypsin-like and caspase-like activities in vitro","[7]; purified 26S and 20S proteasome, 1 h",inhibited all three proteasomal activities in vitro in a dose-dependent manner
same,IC50,"[7]; summary over purified 26S and 20S proteasome, read-out: IC50 values for chymotrypsin-like inhibitory activity, in vitro",< 10 µM
same,"Level of p21, p27, p53, Bax and multiubiquitinated proteins",[8],dose-dependent accumulation
same,"Expression of CDKN1A, CDKN1B, TP53 and BAX genes",[9],did not affect expression of any of these genes
same,"Cytotoxicity (cell mortality), effect of copper loading",[10],enhanced by copper loading
same,"ROS production, effect of copper loading",[11],Copper-loaded cells produced more ROS
same,Growth arrest and apoptosis,[12],induced growth arrest and apoptosis

# Reference: article PMC5412315, “Wedelolactone Acts as Proteasome Inhibitor in Breast Cancer Cells” (International Journal of Molecular Sciences, 2017)
